Test results as given in PMC5460016, “Inhibition of gelatinase B/MMP-9 does not attenuate colitis in murine models of inflammatory bowel disease” (Nature Communications, 2017).

What was measured:
[1] = competitive ELISA, plasma of DSS-treated mice, all three administration schemes
Method: To ensure that therapeutic levels of peptide inhibitors A and B were attained during all three administration schemes, plasma levels were measured with competitive ELISAs as described previously.
Supplementary figure 8: Levels of peptide inhibitors A and B in plasma of DSS-treated mice at time of sacrifice. (a) Plasma levels of peptide inhibitor A measured with ELISA in DSS-treated mice that received either peptide inhibitor A (n=19) or saline (n=9) injections for all three different administration schemes (therapeutic, prophylactic and continuous).
(b) Similar ELISA analyses […]
were performed for detection of peptide inhibitor B in plasma of DSS-treated mice (n=19). This […]
similar as in Figures 9 and 10. Box plots are shown with 5-95 percentiles.
(1 picture or pasted object on this page, not shown here)

[2] = system: Mmp3, Mmp8, Mmp9 mRNA in colonic mouse tissue; test: Colonic mRNA expression of Mmps (quantitative RT-PCR) after peptide inhibitor administration; assay type: in vivo; conditions: DSS mice
Excerpt: Figure 10 Relative mRNA expression of specific Mmps and Tace after administration of peptide MMP inhibitors. Relative mRNA expression measured in colonic mouse tissue after a therapeutic injection scheme (n=16) (a), a prophylactic injection scheme (n=23) (b) and continuous osmotic pump delivery (n=22) (c) of peptide inhibitors A and B. Expression levels were normalized to the control condition (water+saline) and 18S with the use of the 2-delta delta CT method. Mean values with s.e.m. are shown. Statistical analyses were performed with Mann–Whitney U tests (*P<0.05, **P≤0.01; NS, not significant). Colour codes are similar as in Figs 8 and 9.
Snap-frozen mouse colonic fragments were mechanically homogenized with the use of Precellys 24 homogenizer (VWR, Leuven, Belgium). Total RNA was extracted according to the manufacturer's guidelines (RNeasy Mini kit, Qiagen, Hilden, Germany, #74104) and quantified with the use of a Nanodrop ND-1000 Spectrophotometer (Isogen Life Science, Temse, Belgium). cDNA was synthesized with the use of High-Capacity cDNA Reverse Transcription Kit (Applied Biosystems, Foster City, CA, USA). Mmp3, Mmp8, Mmp9 and Tace mRNA levels were analysed in duplicate on 25 ng cDNA by quantitative RT-PCR with the use of TaqMan Universal PCR Master Mix from Applied Biosystems and primer and probe sets from Integrated DNA Technologies (Leuven, Belgium; Supplementary Table 3). Data were normalized to 18S ribosomal RNA levels.

MMP-3 = conditions: Supplementary table 2, no method in this paper, known effects, cited from earlier work
Excerpt: (§1) page 11: Supplementary table 2: IC50 values of peptide inhibitors A and B towards MMP -3, -8, -9 and TACE (μM). Name Peptide sequences† MMP-3 MMP-8 MMP-9 TACE Peptide inhibitor […] No inhibition 17.6 12.5 7.0 (CPU 1) Peptide inhibitor […] 7.0 0.036 0.16 15 (CPU 2) † Peptide sequences are in one-letter codes for amino acids. Pyr stands for pyridylalanine. Supplementary table 3: Primer sequences used for qRT-PCR analyses. Gene Forward primer Reverse primer Probe Mmp3 [NT] Mmp8 ...

MMP-8 = conditions: Supplementary table 2; no method in this paper; known effects; read-out: IC50 towards MMP-8; cited from earlier work
Excerpt: as §1

MMP-9 = conditions: Supplementary table 2; no method in this paper; known effects; read-out: IC50 towards MMP-9; cited from earlier work
Excerpt: as §1

TACE = conditions: Supplementary table 2; no method in this paper; known effects; read-out: IC50 towards TACE; cited from earlier work
Excerpt: as §1

[3] = system: C57BL/6J mice with acute DSS-induced colitis; test: Treatment of acute DSS-induced colitis with peptide inhibitors; conditions: for severity of intestinal inflammation by histopathological analysis (histological inflammation and activity scores): all three administration schemes (therapeutic, prophylactic, osmotic pump); for body weight loss at time of killing: Mann-Whitney U
Excerpt: Acute and chronic dextran sodium sulphate (DSS) colitis were induced as described previously[13][39]. Acute colitis was induced in 8–10 weeks old male and female mice by oral administration of 2–3% DSS (35–50 kDa; MP Biomedicals, Illkirch, France) in the drinking water during 7 days followed by 2–3 days on normal drinking water. All mice were killed at day 9 (Fig. 1a). […] Control mice (WT and MMP-9^−/−) received normal drinking water throughout the duration of the experiment. The body weight of the mice was monitored daily or every other day in case of the acute model, whereas in the chronic model, body weight was followed every 3–4 days. Of importance, WT and MMP-9^−/− mice were co-housed (maximally 5 mice per cage) during the experiments ensuring identical environmental conditions as well as controlling for cage-related effects (for example, coprophagia and intake of food and (DSS-supplemented) drinking water). Both the acute and chronic DSS experiments were repeated three times whereby results could be replicated each time and in total 79 mice were used in the acute models and 35 mice in the chronic models. The number of mice needed was estimated based on previous experience[13] and included at least 5 mice per group to ensure adequate power of detection. […] These mice were excluded from further analyses. […] No randomization was applied before start of the experiments.
Animals were euthanized with sodium pentobarbital (Nembutal, Ovation Pharmaceuticals Inc. Deerfield, USA). The DAI was calculated based on three parameters: loss of body weight (one point for each 5% loss of body weight), consistency of stools (normal=0, soft=2, liquid=4) and presence of gross blood in stools (0=none, 1=present)[13][39]. The colon was isolated, weighted and its length measured from the ileocecal junction to the anus. […] The macroscopic damage score was calculated based on extent of inflammation along the colon (in cm, multiplied by 2 if severe), colonic mesenterial adhesion (0=none, 1=mild, 2=severe) and colonic hyperaemia (0=none and 1=present)[13][39].
Acute colitis was induced in male and female mice via administration of 2% DSS in the drinking water for 7 days followed by 2–4 days on normal drinking water.

[4] = continuous osmotic pump delivery, DSS mice, versus saline
[5] = prophylactic scheme: daily i.p. 250 μg from day 1, 2% DSS mice, versus saline
[6] = therapeutic or prophylactic schemes (daily i.p. 250 μg), DSS mice
[7] = therapeutic scheme: daily i.p. 250 μg from day 6, 2% DSS mice, versus saline

| Substance | plasma levels of peptide inhibitor at time of sacrifice [1] | IC50 (MMP-8) [µM] | IC50 (MMP-9) [µM] | IC50 (TACE) [µM] | severity of intestinal inflammation by histopathological analysis (histological inflammation and activity scores) ([3]; DSS mice) | other colonic measurements (colon weight, colon/body weight ratio and colon weight/length ratio) [3, 4] | body weight loss [3, 5] | disease activity index (DAI) [3, 5] | macroscopic damage score [3, 6] | disease activity index (DAI) [3, 7] | body weight loss at time of killing [3, 7] | further results |
| --- | --- | --- | --- | --- | --- | --- | --- | --- | --- | --- | --- | --- |
| IVRRADRAAVP-GGGG-P(Pyr)CBRGE [Peptide inhibitor B] | inhibitory plasma levels were indeed reached | 0.036 | 0.16 | 15 | did not observe a significant effect | not significantly different | no differences were observed | not significantly different | not altered | higher | significantly more body weight loss | colonic Mmp8 and Mmp3 mRNA expression ([2]; continuous osmotic pump delivery, compared to saline): significantly higher; colonic Mmp9 mRNA expression ([2]; continuous osmotic pump delivery, compared with peptide inhibitor A or saline): significantly increased; colonic expression of Mmp9 mRNA ([2]; prophylactic scheme, compared to saline, qRT-PCR normalized to 18S): significantly increased expression of Mmp9; colonic expression of Mmp3, Mmp8 and Mmp9 mRNA ([2]; therapeutic scheme, compared to peptide inhibitor A or saline, qRT-PCR normalized to 18S): appeared to be higher; IC50 (MMP-3; read-out: IC50 towards MMP-3): 7 µM |
| P(Pyr)CBRGE-GGGG-IVRRADRAAVP [Peptide inhibitor A] | inhibitory plasma levels were indeed reached | 17.6 | 12.5 | 7 | did not observe a significant effect | not significantly different | no differences were observed | not significantly different | not altered | no difference was observed | no difference in body weight loss | IC50 towards MMP-3 (MMP-3): No inhibition; colon length ([3]; continuous osmotic pump delivery, DSS mice, versus peptide inhibitor B or saline): significantly longer; macroscopic damage score [3, 4]: lower macroscopic damage score; body weight loss ([3]; continuous s.c. osmotic pump delivery, 30 mg kg−1 per day, DSS mice, versus peptide inhibitor B and saline): mild protection with lower loss of body weight; disease activity index (DAI) ([3]; continuous s.c. osmotic pump delivery, 30 mg kg−1 per day, DSS mice, versus peptide inhibitor B or saline): significantly lower DAI |
